Data from ChEMBL document CHEMBL1125340, “Inhibition of hog liver folylpolyglutamate synthetase by 5-substituted 5,8-dideaza analogues of folic acid bearing a terminal L-ornithine residue” (J Med Chem, 1992).

System: Folylpolyglutamate synthase (Sus scrofa)
Test: The ratio of Kinetic constant Vmax / Binding constant Km at homogenous Hog Liver Folyl polyglutamate Synthetase (FPGS).

SMILES | Ratio
NCCCC(NC(=O)c1ccc(CNc2ccc3nc(N)nc(O)c3c2Cl)cc1)C(=O)O (centres undefined) | 102
NCCCC(NC(=O)c1ccc(NCc2ccc3nc(N)nc(O)c3c2C(F)(F)F)cc1)C(=O)O (centres undefined) | 121
NCCCC(NC(=O)c1ccc(CNc2ccc3nc(N)nc(O)c3c2F)cc1)C(=O)O (centres undefined) | 64
NCCCC(NC(=O)c1ccc(CNc2ccc3nc(N)nc(O)c3c2C(F)(F)F)cc1)C(=O)O (centres undefined) | 118
